# Experimental data published in US20220211698A1, “ANTI MALARIAL COMPOUNDS” (INSTITUTO DE MEDICINA MOLECULAR, priority 2020, published 2022).
# Entries after “also recorded” stand apart in the source; their conditions may differ.
# Assays:
# UIS3-LC3 complex = UIS3-LC3 complex (Plasmodium falciparum, UniProt Q8IEU1); experiment: Isothermal calorimetry (ITC), C4 titrated into saturated solution of UIS3 with LC3; assay type: binding, P. falciparum
# Description: ITC experiments were performed using MicroCal-ITC 200 (GE healthcare) at 25° C. The data were analyzed using MicroCal ITC-origin analysis software based on one-site binding reaction. For direct interaction studies, a 10 μM concentration of pfUIS3 was titrated against 0.100 μM of LC3. For competition assay, a saturated solution of UIS3 with LC3 was titrated against 100 μM of C4. C4 was resuspended in the same final buffer (with 2% DMSO) in which UIS3 and LC3 was dissolved.
# HeLa cells = experiment: Starvation-induced autophagy in HeLa cells, p62 immunoblot; assay type: cell-based; settings: 1 μM for 24 h, then EBBS amino-acid starvation 7 h
# Description: FIG. 8B is a bar graph showing the p62 levels before and after amino acid starvation were calculated as the ratio of p62 to y tubulin (loading control). Data represent means±SEM (n=2). Statistical significance was assessed using the unpaired two-tailed t-test. ns: non-significant.
# As C4 acts on a protein-protein interaction at the host-parasite interface, the effect of C4 administration on host cell normal autophagy activity was determined. To that end, autophagy was induced in HeLa cells in the presence and absence of C4.
# To perform the foregoing study, HeLa cells (ATCC), which had been maintained under standard culture conditions in DMEM medium supplemented with 10% FCS, 1% glutamine, 1% penicillin/streptomycin, were treated with 1 μM C4 or 0.0001% DMSO (control) for 24 h, and then changed from normal growth medium to EBBS to induce amino-acid starvation dependent autophagy. After 7 h, cells were collected in lysis buffer (50 mM NaCl, 50 mM Tris-Cl pH 8, 5 mM EDTA pH 8, 1% Triton X-100, protease inhibitor) and analysed by western blot using the following antibodies: p62 (rabbit polyclonal, Sigma-Aldrich, P0067, 1:1000) and gamma-tubulin (mouse monoclonal, Sigma-Aldrich, T5326, 1: 10,000). p62 levels were measured by quantifying the ratio of p62 to tubulin signals using Image Lab.
# PfUIS3@Pb [1] = experiment: Immunofluorescence microscopy of EEF number and size, PfUIS3@Pb-infected Huh7 cells; assay type: cell-based, P. berghei expressing P. falciparum UIS3; settings: 1 μM
# Description: (§1) To assess C4 effect on EEF number and size, Huh7 cells were plated on glass coverslips (40,000/cover slip), treated with 1 μM C4 or 0.0001% DMSO (control) and after 2 h infected with P. berghei/PfUIS3@Pb sporozoites (40,000/cover slip). Huh7 cells (obtained from ATCC) were cultured under standard conditions in RPMI 1640 and DMEM medium (Gibco Invitrogen) respectively supplemented with 10% FCS, 1% glutamine, 1% non-essential amino acids (RPMI 1640), 1% penicillin/streptomycin, and 1% Hepes (RPMI 1640).
# (§2) To characterize PfUIS3@Pb parasite line, Huh7 cells were seeded on cover slips as above and infected with WT (P. berghei ANKA (507cl1)/PfUIS3@Pb sporozoites (40,000/cover slip). After 24 h, cells were fixed in 4% paraformaldehyde (ChemCruz) for 15 min at room temperature (RT), permeabilized/blocked (PBS, 0.1% Triton X-100, 1% BSA) for 1 h at RT and incubated with primary antibodies (diluted in blocking solution) for overnight at 4° C. Cells were then washed with PBS, incubated with AlexaFluor-conjugated secondary antibodies (Jackson ImmunoResearch Laboratories) and Hoechst 33342 (Invitrogen) for 1 h at RT and washed again. The coverslips were mounted with Fluoromount (SouthernBiotech). […] GFP signal was detected using AlexaFluor 488 conjugated anti GFP (rabbit polyclonal, Invitrogen, A-21311, 1:500) antibody. […] All images were processed and analysed using ImageJ.
# P. berghei ANKA [2] = experiment: Immunofluorescence microscopy of EEF number and size, P. berghei-infected Huh7 cells; assay type: cell-based; settings: 1 μM
# Description: as §1, §2
# P. berghei [3] = experiment: P. berghei infection in Atg5+/+ and Atg5-/- mouse embryonic fibroblasts; assay type: cell-based; settings: 10 μM
# Description: Data represent means±SEM (n=3). Statistical significance was assessed using the unpaired two-tailed t-test. ns: non-significant, **** P<0.0001.
# To test the hypothesis that high-affinity binding of C4 to the UIS3-LC3 complex could interfere with the function of the UIS3-LC3 complex to cause a decrease Plasmodium infection by interfering with the parasite's ability to evade host cell autophagy, genetic and chemicals tools were used to assess the anti-parasitic activity of C4 in autophagy-competent and autophagy-deficient cells.
# MEFs used in these studies were obtained from the Riken BioResource Research Center (Atg5^+/+ (RCB2710) and Atg5^−/− (RCB2711). (Kuma et al.) MEFs were cultured in DMEM supplemented as described above for Huh7 cells. MEFs were validated through quantitative reverse transcription PCR.
# P. berghei ANKA [4] = experiment: P. berghei infection of Huh7 cells (luciferase parasite load / flow cytometry EEF count); assay type: cell-based
# Description: The PHS was performed using Huh7 cells infected with sporozoites from either parasite lines with or without adding each of the compounds, at a concentration of 10 μM, 2 h before sporozoite addition. Infection level was determined either by measuring luminescent levels of the GFP and firefly luciferase-expressing P. berghei ANKA (676m1cl1), (obtained from the Leiden Malaria Research Group) or the number of GFP-positive infected cells by flow cytometry, representing Plasmodium exo-erythrocytic form, EEF, (as PfUIS3@Pb parasite line express GFP).
# (§3) To perform the flow cytometry analysis, Huh7 cells were seeded on a 24 well plate (50,000 cells/well) in RPMI and DMEM media respectively. The next day, media was replaced with different compounds (10 μM)/C4 (various conc.)/1 μM C4/1 μM C4+50 μM Chloroquine containing media, as appropriate in different experiments. Cells were then infected with P. bergehi/PfUIS3@Pb parasites and analysed by flow cytometry at 2 h/24 h post infection. DMSO was used as control and Primaquine was used as the positive control. For flow cytometry, infected cells were trypsinized and resuspended in 300 μl of media. 50 μl of each sample were analysed on BD Accuri C6 as described in Hanson et al. Data were analysed using FlowJo software.
# The IC50 for C4 in P. berghei ANKA-infected and PfUIS3@Pb-infected cells at 24 h. Post-infection was 93.3 nM and 188.2 nM, respectively. To analyze C4 dose-dependent effect, media were replaced with DMSO (0.0001%)/C4 (various conc.)-containing media. After 2 h, cells were infected with luciferase-expressing P. berghei sporozoites (10,000/well) and processed for Luciferase assay at 24 h post-infection. Flow cytometry was used to determine EEF counts.
# P. berghei [5] = experiment: Sporozoite invasion of Huh7 cells, EEFs at 2 h post-infection by flow cytometry; assay type: cell-based; settings: 1 μM, added 2 h before infection
# Description: FIG. 5E is a bar graph showing the effect of 1 μM C4 on P. berghei numbers in Huh7 cells as quantified by number of EEFs at 2 h post-infection. C4 was added to the cells 2 h before infection. EEFs were quantitated using flow cytometry. Data represent means±SEM (n=3). Non-parametric two-tailed Mann-Whitney test was used to compare the effect of DMSO control and C4. ns: non-significant.
# as §3
# PfUIS3@Pb [6] = experiment: PfUIS3@Pb infection of Huh7 cells (flow cytometry EEF count); assay type: cell-based, P. berghei expressing P. falciparum UIS3; settings: 24 h post-infection
# Description: The following two Plasmodium parasite strains were used in the PHS: i) the rodent wild-type (WT) GFP expressing P. berghei ANKA parasite strain (259cl2, obtained from the Leiden Malaria Research Group); and ii) the parasite line, PfUIS3@Pb, created by inserting the gene encoding P. falciparum UIS3 with an added a 2 HA tag (UIS3-HA) into the P. berghei parasite (507cl1, obtained from the Leiden Malaria Research Group) at the UIS3 locus under the control of native 5′ and 3′ regulatory sequences. More particularly, to replace the P. berghei UIS3 open reading frame (ORF) with UIS3 ORF of P. falciparum, a double crossover recombination was performed as described in FIG. 2A. Transfection was carried out by electroporation of purified schizonts as previously described. […]
# The PHS was performed using Huh7 cells infected with sporozoites from either parasite lines with or without adding each of the compounds, at a concentration of 10 μM, 2 h before sporozoite addition. Infection level was determined either by measuring luminescent levels of the GFP and firefly luciferase-expressing P. berghei ANKA (676m1cl1), (obtained from the Leiden Malaria Research Group) or the number of GFP-positive infected cells by flow cytometry, representing Plasmodium exo-erythrocytic form, EEF, (as PfUIS3@Pb parasite line express GFP). […]
# PfUIS3@Pb [7] = experiment: Reversal of C4 effect by autophagy inhibitor, PfUIS3@Pb-infected Huh7 cells; assay type: cell-based, P. berghei expressing P. falciparum UIS3; settings: 50 μM with 1 μM C4, added 2 h before infection, 24 h post-infection
# Description: C4 and Chloroquine were added to the cells 2 h before infection. The effect was analysed at 24 h post-infection using flow cytometry by quantifying the EEFs number in infected cells. Data represent means±SEM. Pooled data from 4 independent experiments are presented. Statistical significance was assessed using the unpaired two-tailed t-test. *** P<0.001, **** P<0.0001.
# as §3, with “software. […]” for “software.”
# P. berghei [8] = experiment: Reversal of C4 effect by autophagy inhibitor, P. berghei-infected Huh7 cells; assay type: cell-based; settings: 50 μM with 1 μM C4, added 2 h before infection, 24 h post-infection
# Solubility in DMSO = assay type: physicochemical
# [9] = biological target: Microtubule-associated protein 1A/1B-light chain 3 (LC3), purified recombinant (UniProt Q9GZQ8); experiment: ITC, 100 µM LC3 titrated into 10 µM PfUIS3, 25 °C, one-site model
compound,measurement,setting,value
N#Cc1ccc(C(=O)N2CCN(Cc3ccc(-c4noc(-c5cccc(C(F)(F)F)c5)n4)cc3)CC2)cc1 [Compound C4],Affinity to UIS3-LC3 complex relative to direct UIS3-LC3 interaction,UIS3-LC3 complex,10 fold
same,Kd,"UIS3-LC3 complex; 25° C., one-site binding model, 100 μM C4 into UIS3 saturated with LC3",241 ± 1.1 nM
same,Host cell response to exogenous autophagy stimulus (p62 levels),HeLa cells,does not cause any impairment
same,"Parasite development, as measured by parasite area",PfUIS3@Pb [1],modest impact
same,Number of infected cells (microscopy),PfUIS3@Pb [1]; added 2 h before infection,significant decrease
same,"Parasite development, as measured by parasite area",P. berghei ANKA [2],modest impact
same,Number of infected cells (microscopy),P. berghei ANKA [2]; added 2 h before infection,significant decrease
same,Reduction in infection in Atg5−/− MEFs,P. berghei [3]; autophagy-deficient cells,did not cause any reduction in infection
same,Impact on infection in Atg5+/+ MEFs,P. berghei [3]; control cells,comparable to that observed for infected Huh7 cells
same,Effect on infection over time,"P. berghei ANKA [4]; 1 μM, from very early time-point, maintained through at least 48 h post-infection",decreased infection
same,Parasite load / decrease in infection in phenotypic screen,"P. berghei ANKA [4]; 10 μM, added 2 h before infection, 24 h post-infection, Huh7 cells",most effective compound; also recorded: highest decrease in infection
same,IC50,"P. berghei ANKA [4]; Plasmodium berghei, Huh-7, P. berghei ANKA-infected Huh7 cells, 24 h post-infection, luciferase assay",93.3 nM
same,Effect on sporozoite invasion of host cells,P. berghei [5],did not affect
same,Number of EEFs / decrease in infection in phenotypic screen,"PfUIS3@Pb [6]; 10 μM, added 2 h before infection, Huh7 cells",most effective compound; also recorded: highest decrease in infection
same,IC50,"PfUIS3@Pb [6]; PfUIS3@Pb-infected Huh7 cells, flow cytometry",188 nM
CCN(CC)CCCC(C)Nc1ccnc2cc(Cl)ccc12 (stereo not shown) [Chloroquine],Reversal of anti-parasitic effect of C4 (EEF number),PfUIS3@Pb [7],can be reverted
same,Reversal of anti-parasitic effect of C4 (EEF number),PfUIS3@Pb [7]; listed as chloroquine,rescued the C4 effect
same,Reversal of anti-parasitic effect of C4 (EEF number),P. berghei [8],can be reverted
same,Reversal of anti-parasitic effect of C4 (EEF number),P. berghei [8]; listed as chloroquine,rescued the C4 effect
Cc1c/c(=N\C(=O)N2CCC3(CC2)OCCO3)nc2c3ccccc3oc(O)c1-2 [Compound C8],Solubility in DMSO,Solubility in DMSO,insolubilities in DMSO
Cc1ccc(C)c(NC(=O)N2CCN(c3ccc(-c4noc(C5CCCCC5)n4)cc3)CC2)c1 [Compound C9],Solubility in DMSO,Solubility in DMSO,insolubilities in DMSO
"Plasmodium falciparum Upregulated in infective sporozoites 3 (UIS3), purified recombinant myc-UIS3",Kd,[9],2150 nM
